Read-outs that look alike come from different tables or passages of the source.
Assays:
[1] = system: p53 and its target genes; test: RT-qPCR and Western blot of p53 and its target genes in U2OS cells; assay type: cell-based, human; settings: U2OS cells
Method: Western blot and immunostaining was performed essentially as described in Li, P. et al., Oncogene 29 (21), 3153-3162 (2010). Antibodies used in Western blot were anti-p53 (Sigma), anti-PAD4, anti-p21 (Sigma), anti-PUMA (Calbiochem), anti-SESN2 (Abeam), anti-p70S6K (Cell Signaling), anti-p70S6K-pT389 (Cell Signaling), anti-LC3 (Cell Signaling) and anti-β-actin (Sigma) at appropriate dilutions. Anti-LC3B antibody (Cell Signaling) was used for immunostaining. DNA was stained by the DNA dye Hoechst.
RNA was extracted using RNeasy Mini Kit (Qiagen) per manufacturer's instructions. 1 μg RNA was reverse transcribed into cDNA using qScript cDNA SuperMix (Quanta Biosciences) per manufacturer's instructions. Quantitative PCR was performed using SYBR Green SuperMix (Quanta Biosciences) in StepOnePlus Real-Time PCR System (Applied Biosystems). FIG. 10 is a graph showing p53 and its target gene expression induced in S180 cells by YW3-56 in a concentration dependent manner.
U2OS and S-180 cells were cultured in Dulbecco modified Eagle medium (DMEM) supplemented with 10% fetal bovine serum and 1% penicillin-streptomycin in a 5% CO2 incubator. U2OS p53-shRNA and U2OS Ctrl-shRNA cells were generated as described in Li, P. et al., Regulation of p53 target gene expression by peptidylarginine deiminase 4. Mol Cell Bial 28 (15), 4745-4758 (2008). Concentrations and duration of YW3-56 treatment were performed as specified in the figures and text. For starvation assay, U2OS cells were first cultured in serum-free DMEM for 16 hr, 10% fetal bovine serum and different concentrations of YW3-56 was then added back and cells were further incubated for 8 hr before further analyses. SESN2 siRNA (Santa Cruz) and GFP siRNA (Dharmacon Inc.) were transfected into U2OS cells using the XtremeGene siRNA transfection reagents (Roche Inc.). Cells were incubated in the presence of the siRNA for 48 hr before adding YW3-56 and further incubated for 8 hr before analyses.
The relative abundance of each gene is compared with β-actin as a reference. Increase in several p53 target genes, such as p21, GADD45, PUMA, OKL38, DRAM, and Sestrin2, is detected after YW3-88 treatment at 12 μM concentration. […] Increase in p21 and PUMA proteins is detected.

[2] = system: U2OS human osteosarcoma cells; test: MTT assay of U2OS cancer cell growth inhibition; assay type: cell-based; settings: for IC50: read-out: 50% inhibition Cell growth, U2OS cells, MTT, 72 hr; for U2OS cell growth in MTT assay: 20 μM, 3 days
Method: MIT assays are conducted to evaluate activity to inhibit cancer cell growth. U2OS human osteosarcoma cells were treated with individual compounds at different concentrations for 72 hr in 24-well plates. MIT reagent was added to a final concentration of 0.5 mg/ml and further incubated for 4 hr. The yellow-colored MTT was reduced to insoluble purple-colored Formazan in living cells. Culture medium was removed and DMSO was added to dissolve Formazan into solution. The absorbance of the solution was then measured at 570 nm using a Thermo BioMate™ 3 spectrophotometer. Results are shown in FIG. 1 and average and standard deviations are shown (n>=3).
Cells were treated with individual compounds at different concentrations for 72 hr in 24-well plates. MTT reagent was added to a final concentration of 0.5 mg/ml and further incubated for 4 hr. The yellow-colored MTT was reduced to insoluble purple-colored Formazan in living cells. Culture medium was removed and DMSO was added to dissolve Formazan into solution. The absorbance of the solution was then measured at 570 nm using a Thermo BioMate™ 3 spectrophotometer.

[3] = target: PAD4 (Homo sapiens (Human), UniProt Q9UM07); test: PAD4 enzyme activity colorimetric assay (citrullination of BAEE); assay type: biochemical; settings: 0.2 μg PAD4, 5 mM BAEE, 37° C.
Method: PAD4 enzyme activity assays are conducted to determine PAD4 inhibitory activity. PAD4 inhibition efficacy of the inhibitors is determined using a colorimetric assay for citrullination production.
The inhibition efficacy of PAD4 inhibitors were determined by colorimetric measurement of citrulline generated by PAD4 catalyzed citrullination of BAEE. 0.2 μg PAD4 was pre-incubated with inhibitors in 100 μl buffer containing 50 mM Tris-HCl pH7.6, 5 mM CaCl2, 2 mM DTT for 0.5 hr at 37° C. The reaction was started by the addition of BAEE to 5 mM and halted 1.5 hr later with the addition of 25 μl 5 M HClO4. Then the samples were briefly centrifuged at 12000 rpm for 2 min at 4° C. and the supernatant (120 μl) were assayed for citrulline by mixing with 120 μl reagent A (0.5% w/v diacetyl monoxime and 15% w/v NaCl in water) and 240 μl reagent B (1% w/v antipyrine, 0.15% w/v ferric chloride, 25% v/v H2SO4 and 25% v/v H3PO4). The mixtures were boiled for 15 min and cooled to room temperature in ice bath. The absorbance of the reagent mixtures at 464 nm was measured by Thermo BioMate™ 3 spectrophotometer. Efficacies of inhibitors are indicated as relative PAD4 citrullination activity by normalizing the PAD4 activity without inhibitor treatment to 100%.

[4] = system: PAD4-/- mouse neutrophils; test: Histone citrullination, enlarged nucleus and NET formation in PAD4-/- neutrophils; assay type: cell-based; settings: U.D. = undetectable
Method: (§1) NET formation is induced after lipopolysaccharides (LPS) and phorbol myristate acetate (PMA) treatment in human neutrophils (Brinkmann et al., 2004). To test whether PAD4 is important for chromatin decondensation and NET formation upon LPS treatment, immunostaining experiments are performed. Before LPS treatment, ˜3.69% of PAD4^+/+ neutrophils are positively stained for histone H3 citrullination but NET formation is not detected, while histone H3 citrullination or NET formation is not observed in PAD4^−/− neutrophils. After LPS treatment, an increase in histone H3 citrullination is detected in PAD4^+/+ but not in PAD4^−/− neutrophils by Western blotting or immunostaining analyses. […] The decondensed chromatin induced by LPS is positively stained by histone H3 citrullination and neutrophil elastase antibodies, indicating these structures are indeed NETs. […] Furthermore, chromatin decondensation and histone citrullination are detected in PAD4^+/+ but not in PAD4^−/− neutrophils after PMA treatment.
(§2) Table II illustrates the efficacy of LPS, PMA, and H2O2 in inducing chromatin structure changes in PAD4^+/+ and PAD4^−/− neutrophils. […] PAD4 is required for NET formation after stimulation of neutrophils.

[5] = system: PAD4+/+ mouse neutrophils; test: Histone citrullination, enlarged nucleus and NET formation in PAD4+/+ neutrophils; assay type: cell-based; settings: for NET formation, percentage of neutrophils / Histone citrullination, percentage of positive neutrophils / Enlarged nucleus, percentage of neutrophils: PAD4+/+; for NET formation, percentage of neutrophils / Enlarged nucleus, percentage of neutrophils: Cl-amidine 200 μM 30 min prior to LPS; for Histone citrullination, percentage of positive neutrophils: Cl-amidine 200 μM 30 min prior to LPS for 3 hr; for Enlarged nucleus, percentage of neutrophils: nuclear diameter over 1.5 fold larger
Method: as §1, §2

[6] = system: human HL-60 granulocytic cells; settings: HL-60 granulocytic cells (Wang et al., 2009); cited from earlier work
[7] = Body and vital organ weight after 1 week of treatment; assay type: in vivo, mouse
Method: S180 ascites tumor cells were used to form solid tumors after subcutaneous injection essentially as described in Wang, W. et al., Mol. Biosyst., 2011, 7:766-772. In brief, for initiation of subcutaneous tumors, the cells were obtained as an ascitic form from the tumor-bearing mice, which were serially transplanted once per week. Subcutaneous tumors were implanted by injecting 0.2 ml of 0.9% saline containing 1×10^7 viable tumor cells under the skin on the right armpit. 24 hr after implantation, male ICR mice were randomly divided into experimental groups. The mice in the positive control group were given a daily i.p injection of 2 mg/kg of doxorubicin in 0.2 ml of 0.9% saline for 7 consecutive days. The mice in the negative control group were given a daily i.p injection of 0.2 ml of 0.9% saline for 7 consecutive days. […] The weights of the mice were recorded every day. […]
FIG. 13A-13F show weight of whole body, FIG. 13A; brain, FIG. 13B; heart, FIG. 13C; liver, FIG. 13D; kidney, FIG. 13E; and spleen, FIG. 13F measured in mice after 1 week of treatment with daily intraperitoneal injection of control PBS, YW3-56 at 10 mg/kg body weight, SAHA at 5 mg/kg body weight, a mixture of YW3-56 at 5 mg/kg body weight and SAHA at 2.5 mg/kg body weight, or doxorubicin at 2 mg/kg body weight. * in (f) denotes a loss of spleen weight after doxorubicin treatment.

[8] = system: S180 tumor; test: Sarcoma S180 cell-derived mouse tumor model; assay type: in vivo; settings: SAHA 5 mg/kg daily for 1 week
Description: A well-established sarcoma S180 cell-derived mouse tumor model is used in this example to determine the effects of PAD4 inhibitors of the present invention on tumor growth in mice.
S180 ascites tumor cells were used to form solid tumors after subcutaneous injection essentially as described in Wang, W. et al., Mol. Biosyst., 2011, 7:766-772. In brief, for initiation of subcutaneous tumors, the cells were obtained as an ascitic form from the tumor-bearing mice, which were serially transplanted once per week. Subcutaneous tumors were implanted by injecting 0.2 ml of 0.9% saline containing 1×10^7 viable tumor cells under the skin on the right armpit. 24 hr after implantation, male ICR mice were randomly divided into experimental groups. The mice in the positive control group were given a daily i.p injection of 2 mg/kg of doxorubicin in 0.2 ml of 0.9% saline for 7 consecutive days. The mice in the negative control group were given a daily i.p injection of 0.2 ml of 0.9% saline for 7 consecutive days. The mice in the treatment groups were given a daily i.p injection of YW3-56 (10 mg/kg), SAHA (5 mg/kg), or a combination of YW3-56 (5 mg/kg) and SAHA (2.5 mg/kg) for 7 consecutive days. The weights of the mice were recorded every day. 24 hr after the last administration, all mice were weighed, euthanized and immediately dissected to obtain and weigh the tumor and vital organs.

[9] = read-out: 50% inhibition PAD4 activity

Chain of PAD4 (Q9UM07 whole entry, species assumed): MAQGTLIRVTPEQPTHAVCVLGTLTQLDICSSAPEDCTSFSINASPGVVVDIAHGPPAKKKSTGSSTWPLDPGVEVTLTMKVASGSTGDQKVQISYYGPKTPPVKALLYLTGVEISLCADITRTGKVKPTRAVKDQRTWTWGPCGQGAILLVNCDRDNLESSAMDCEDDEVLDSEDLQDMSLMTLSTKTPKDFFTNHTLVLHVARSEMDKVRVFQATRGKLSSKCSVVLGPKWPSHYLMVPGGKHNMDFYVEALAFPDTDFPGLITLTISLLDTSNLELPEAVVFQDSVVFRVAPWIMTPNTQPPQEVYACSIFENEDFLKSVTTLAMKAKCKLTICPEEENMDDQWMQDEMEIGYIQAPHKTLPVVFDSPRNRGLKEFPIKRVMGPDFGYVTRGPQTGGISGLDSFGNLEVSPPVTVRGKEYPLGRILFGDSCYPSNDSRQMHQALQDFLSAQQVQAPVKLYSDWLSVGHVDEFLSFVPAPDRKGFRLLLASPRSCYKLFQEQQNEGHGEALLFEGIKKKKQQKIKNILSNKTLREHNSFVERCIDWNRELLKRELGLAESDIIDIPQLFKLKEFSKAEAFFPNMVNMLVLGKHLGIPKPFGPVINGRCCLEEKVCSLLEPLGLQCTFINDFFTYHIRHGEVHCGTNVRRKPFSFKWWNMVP

N=C(CCl)NCCC[C@H](NC(=O)c1ccccc1)C(=O)NCc1ccccc1 [BL1-07]
induction of p53 and its target genes ([1]; even at higher concentrations): less potent
IC50 ([2]; Homo sapiens): 10 to 20 µM
IC50 [3, 9]: > 20 µM

NC(=O)[C@H](CCCN=C(N)CCl)NC(=O)c1ccccc1 [Cl-amidine]
Enlarged nucleus, percentage of neutrophils [4]: U.D.
Histone citrullination, percentage of positive neutrophils [4]: U.D.
NET formation, percentage of neutrophils [4]: U.D.
IC50 [2]: 150 to 200 µM
NET formation, percentage of neutrophils [5]: 0.32 ± 0.3%^5
Histone citrullination, percentage of positive neutrophils [5]: 8.1 ± 1.3%^5
Enlarged nucleus, percentage of neutrophils [5]: 1.2 ± 0.2%^5
histone H3 citrullination and chromatin decondensation induced by LPS ([5]; pretreatment of PAD4+/+ mouse neutrophils): significantly decreases
formation of NET-like structure [6]: represses the formation of NET-like structure

CCCCCCCCCCCCCC(=O)O[C@@H]1[C@@H](C)[C@@]2(O)[C@@H](C=C(CO)C[C@]3(O)C(=O)C(C)=C[C@@H]23)[C@@H]2C(C)(C)[C@]12OC(C)=O [PMA, phorbol myristate acetate]
Enlarged nucleus, percentage of neutrophils [4]: U.D.
Histone citrullination, percentage of positive neutrophils [4]: U.D.
NET formation, percentage of neutrophils [4]: U.D.
NET formation, percentage of neutrophils [5]: 2.7 ± 0.5%^5
Histone citrullination, percentage of positive neutrophils [5]: 48.5 ± 3%^5
Enlarged nucleus, percentage of neutrophils [5]: 10.9 ± 0.3%^5

O=C(CCCCCCC(=O)Nc1ccccc1)NO [SAHA, suberoylanilide hydroxamic acid, reference compound]
mouse growth and vital organ size ([7]; daily i.p. injection for 1 week): Neither SAHA alone nor mixtures of YW3-56 and SAHA impair
growth of S180 tumor relative to control group [8]: ~44.6%

OO [Structure H2O2, H2O2]
Enlarged nucleus, percentage of neutrophils [4]: U.D.
Histone citrullination, percentage of positive neutrophils [4]: U.D.
NET formation, percentage of neutrophils [4]: U.D.
NET formation, percentage of neutrophils [5]: 3 ± 0.3%^5
Histone citrullination, percentage of positive neutrophils [5]: 48.3 ± 5.4%^5
Enlarged nucleus, percentage of neutrophils [5]: 13.4 ± 1.4%^5

N=C(CCl)NCCC[C@H](NC(=O)c1ccc(-c2ccccc2)cc1)C(=O)NCc1ccccc1 [YW3-88]
p21 and PUMA proteins by Western blot [1]: Increase
p53 target gene mRNA (p21, GADD45, PUMA, OKL38, DRAM, Sestrin2) ([1]; 12 μM): Increase
U2OS cell growth in MTT assay [2]: abolished cell growth
IC50 ([2]; Homo sapiens): ~10 µM
IC50 [3, 9]: > 20 µM

N=C(CCl)NCCC[C@H](NC(=O)c1cccc(-c2ccccc2)c1)C(=O)NCc1ccccc1 [YW4-03]
U2OS cell growth in MTT assay [2]: abolished cell growth
IC50 ([2]; Homo sapiens): 2.5 to 5 µM
IC50 [3, 9]: ~5 µM

CN(C)c1ccc2cc(C(=O)N[C@@H](CCCNC(=N)CCl)C(=O)NCc3ccc(NC(=O)CCCNC(=O)CCCCC4SCC5NC(=O)NC54)cc3)ccc2c1 (some centres unmarked) [YW4-15]
IC50 ([2]; Homo sapiens): 20 to 50 µM
IC50 [3]: 1 to 5 µM

COc1cccc2c1C(=O)c1c(O)c3c(c(O)c1C2=O)C[C@@](O)(C(=O)CO)C[C@@H]3O[C@H]1C[C@H](N)[C@H](O)[C@H](C)O1 [doxorubicin]
size of spleen relative to control mice ([7]; doxorubicin 2 mg/kg i.p. daily for 1 week): ~50%

lipopolysaccharides [LPS]
Enlarged nucleus, percentage of neutrophils [4]: U.D.
Histone citrullination, percentage of positive neutrophils [4]: U.D.
NET formation, percentage of neutrophils [4]: U.D.
nuclear area increase in size (swelling nuclei) ([5]; PAD4+/+ neutrophils after LPS treatment, NIH image J): ~3.5 fold
NET formation, percentage of neutrophils [5]: 9.5 ± 0.5%^5
Histone citrullination, percentage of positive neutrophils [5]: 42.3 ± 3.9%^5
Enlarged nucleus, percentage of neutrophils [5]: 23.4 ± 2.7%^5

Reference: patent US8969333B2, “Therapeutic compositions and methods” (The Penn State Research Foundation, priority 2010, dated 2015)
